Among the data in US9156872B2, “2′-azido substituted nucleoside derivatives and methods of use thereof for the treatment of viral diseases” (priority 2011, dated 2015) are EC50 values, retold here.

The test system of one assay is HCV replicon cells. The assay is described as follows: Cell-based HCV replicon assay (replicon RNA by Taqman real time PCR). To be noted: HCV replicon 1b, cells harvested on day 3; read-out: 1b EC50. (Replicon systems follow genome replication, usually without infectious particles.)
As usually defined, the EC50 is the concentration giving half of the maximal effect. `CC(C)OP1(=O)OC[C@H]2O[C@@H](n3ccc(=O)[nH]c3=O)[C@](C)(N=[N+]=[N-])[C@@H]2O1` (some centres unmarked) [Compound 44]: the EC50 is greater than 100000 nM.

The same assay, now with this note: Hepatitis C virus, 72 h, HCV replicon 1b, cells harvested on day 3; read-out: 1b EC50.
`C[C@@]1(N=[N+]=[N-])[C@H](O)[C@@H](CO)O[C@H]1n1cnc2c(=O)[nH]c(N)nc21` [Compound 17]: the half-maximal effective concentration (EC50) is greater than 100000 nM. Same read-out and setting: under `CC(C)OP1(=O)OC[C@H]2O[C@@H](n3ccc(N)nc3=O)[C@](C)(N=[N+]=[N-])[C@@H]2O1` (some centres unmarked) [Compound 19] stands greater than 100000 nM; under `CCOc1nc(N)nc2c1ncn2[C@@H]1O[C@@H]2COP(=O)(OC(C)C)O[C@H]2[C@@]1(C)N=[N+]=[N-]` (some centres unmarked) [Compound 23], 69000 nM. Still for that read-out and setting: as for `CCCOP1(=O)OC[C@H]2O[C@@H](n3cnc4c(OCC)nc(N)nc43)[C@](C)(N=[N+]=[N-])[C@@H]2O1` (some centres unmarked) [Compound 24], the figure is greater than 100000 nM.

`CCCOP1(=O)OC[C@H]2O[C@@H](n3ccc(N)nc3=O)[C@](C)(N=[N+]=[N-])[C@@H]2O1` (some centres unmarked) [Compound 33]: the half-maximal effective concentration (EC50) is greater than 100000 nM.

With `CC(C)OP1(=O)OC[C@H]2O[C@@H](n3ccc(=O)[nH]c3=O)[C@](C)(N=[N+]=[N-])[C@@H]2O1` (some centres unmarked) [Compound 43], the EC50 is greater than 100000 nM. Still for that read-out and setting: as for `COc1nc(N)nc2c1ncn2[C@@H]1O[C@H](CO)[C@@H](O)[C@@]1(C)N=[N+]=[N-]` [Compound 51], the figure is greater than 100000 nM.

Still in this assay, the particulars now being: Hepatitis C virus, 72 h, read-out: 1b EC50.
Turning to `CCOC(=O)[C@H](C)NP(=O)(OC[C@H]1O[C@@H](n2cnc3c(OCC)nc(N)nc32)[C@](C)(N=[N+]=[N-])[C@@H]1O)Oc1ccccc1` (some centres unmarked) [Compound 10], the EC50 was 900 nM.

With `CCOc1nc(N)nc2c1ncn2[C@@H]1O[C@H](COP(=O)(N[C@@H](C)C(=O)OCC(C)(C)C)Oc2ccccc2)[C@@H](O)[C@@]1(C)N=[N+]=[N-]` (some centres unmarked) [Compound 11], the EC50 worked out at 1100 nM. Same read-out and setting: under `CCCCOC(=O)[C@H](C)NP(=O)(OC[C@H]1O[C@@H](n2cnc3c(OCC)nc(N)nc32)[C@](C)(N=[N+]=[N-])[C@@H]1O)Oc1cccc2ccccc12` (some centres unmarked) [Compound 12] stands 1300 nM. The same measure, in the same setting: under `CCOC(=O)[C@H](C)NP(=O)(OC[C@H]1O[C@@H](n2ccc(N)nc2=O)[C@](C)(N=[N+]=[N-])[C@@H]1O)Oc1ccccc1` (some centres unmarked) [Compound 13] stands 6400 nM.

`C[C@H](NP(=O)(OC[C@H]1O[C@@H](n2ccc(N)nc2=O)[C@](C)(N=[N+]=[N-])[C@@H]1O)Oc1ccccc1)C(=O)OCC(C)(C)C` (some centres unmarked) [Compound 14]: the concentration for a half-maximal effect (EC50) came out at 32000 nM. Regarding `CCOC(=O)[C@H](C)NP(=O)(OC[C@H]1O[C@@H](n2ccc(=O)[nH]c2=O)[C@](C)(N=[N+]=[N-])[C@@H]1O)Oc1ccccc1` (some centres unmarked) [Compound 15], the 50% effective concentration (EC50) was determined as 1400 nM.

For `C[C@H](NP(=O)(OC[C@H]1O[C@@H](n2ccc(=O)[nH]c2=O)[C@](C)(N=[N+]=[N-])[C@@H]1O)Oc1ccccc1)C(=O)OCC(C)(C)C` (some centres unmarked) [Compound 16], the EC50 came to 1000 nM. As to `COP1(=O)OC[C@H]2O[C@@H](n3ccc(=O)[nH]c3=O)[C@](C)(N=[N+]=[N-])[C@@H]2O1` (some centres unmarked) [Compound 18], the EC50 was greater than 100000 nM. Turning to `CCOc1nc(N)nc2c1ncn2[C@@H]1O[C@H](COP(=O)(N[C@@H](C)C(=O)OC(C)C)Oc2ccccc2)[C@@H](O)[C@@]1(C)N=[N+]=[N-]` (some centres unmarked) [Compound 20], the EC50 worked out at 1000 nM. Regarding `CC(C)OC(=O)[C@H](C)NP(=O)(OC[C@H]1O[C@@H](n2ccc(N)nc2=O)[C@](C)(N=[N+]=[N-])[C@@H]1O)Oc1ccccc1` (some centres unmarked) [Compound 22], the half-maximal effective concentration (EC50) turned out to be 3100 nM.

As to `CCOc1nc(N)nc2c1ncn2[C@@H]1O[C@@H]2COP(=O)(OC)O[C@H]2[C@@]1(C)N=[N+]=[N-]` (some centres unmarked) [Compound 25], the EC50 stood at 13000 nM. The same measure, in the same setting: under `CCCCOC(=O)[C@H](C)NP(=O)(OC[C@H]1O[C@@H](n2ccc(=O)[nH]c2=O)[C@](C)(N=[N+]=[N-])[C@@H]1O)Oc1ccccc1` (some centres unmarked) [Compound 26] stands 600 nM; under `CCCCOC(=O)[C@H](C)NP(=O)(OC[C@H]1O[C@@H](n2cnc3c(OCC)nc(N)nc32)[C@](C)(N=[N+]=[N-])[C@@H]1O)Oc1ccccc1` (some centres unmarked) [Compound 27], 100 nM. Same read-out and setting: under `CCCOC(=O)[C@H](C)NP(=O)(OC[C@H]1O[C@@H](n2ccc(=O)[nH]c2=O)[C@](C)(N=[N+]=[N-])[C@@H]1O)Oc1ccccc1` (some centres unmarked) [Compound 28] stands 2300 nM; under `CCCOC(=O)[C@H](C)NP(=O)(OC[C@H]1O[C@@H](n2cnc3c(OCC)nc(N)nc32)[C@](C)(N=[N+]=[N-])[C@@H]1O)Oc1ccccc1` (some centres unmarked) [Compound 29], 500 nM.

For the molecule `CCCOC(=O)[C@H](C)NP(=O)(OC[C@H]1O[C@@H](n2ccc(N)nc2=O)[C@](C)(N=[N+]=[N-])[C@@H]1O)Oc1ccccc1` (some centres unmarked) [Compound 30], the concentration for a half-maximal effect (EC50) was 3300 nM. The same measure, in the same setting: as for `CCCCOC(=O)[C@H](C)NP(=O)(OC[C@H]1O[C@@H](n2ccc(N)nc2=O)[C@](C)(N=[N+]=[N-])[C@@H]1O)Oc1ccccc1` (some centres unmarked) [Compound 31], the figure is 4900 nM. On the same count and under the same terms, under `CCOc1nc(N)nc2c1ncn2[C@@H]1O[C@H](COP(=O)(N[C@@H](C)C(=O)OC)Oc2ccc(F)cc2)[C@@H](O)[C@@]1(C)N=[N+]=[N-]` (some centres unmarked) [Compound 35] stands 1600 nM. On the same count and under the same terms, as for `COC(=O)[C@H](C)NP(=O)(OC[C@H]1O[C@@H](n2ccc(N)nc2=O)[C@](C)(N=[N+]=[N-])[C@@H]1O)Oc1ccc(F)cc1` (some centres unmarked) [Compound 36], the figure is 40000 nM; as for `CC(C)OC(=O)[C@H](C)NP(=O)(OC[C@H]1O[C@@H](n2ccc(=O)[nH]c2=O)[C@](C)(N=[N+]=[N-])[C@@H]1O)Oc1ccccc1Cl` (some centres unmarked) [Compound 39], 49000 nM; as for `COC(=O)[C@H](C)NP(=O)(OC[C@H]1O[C@@H](n2ccc(=O)[nH]c2=O)[C@](C)(N=[N+]=[N-])[C@@H]1O)Oc1ccccc1Cl` (some centres unmarked) [Compound 40], 4000 nM. As to `COC(=O)[C@H](C)NP(=O)(OC[C@H]1O[C@@H](n2ccc(=O)[nH]c2=O)[C@](C)(N=[N+]=[N-])[C@@H]1O)Oc1cccc2ccccc12` (some centres unmarked) [Compound 41], the EC50 was determined as 3 nM. Turning to `CC(C)OC(=O)[C@H](C)NP(=O)(OC[C@H]1O[C@@H](n2ccc(=O)[nH]c2=O)[C@](C)(N=[N+]=[N-])[C@@H]1O)Oc1ccc2c(c1)OCO2` (some centres unmarked) [Compound 42], the EC50 came out at 25000 nM. Consider `C[C@@H](NP(=O)(OC[C@H]1O[C@@H](n2ccc(=O)[nH]c2=O)[C@](C)(N=[N+]=[N-])[C@@H]1O)Oc1ccccc1)C(=O)OCc1ccccc1` (some centres unmarked) [Compound 45], for which the 50% effective concentration (EC50) is 5600 nM. As to `COC(=O)[C@H](C)NP(=O)(OC[C@H]1O[C@@H](n2ccc(N)nc2=O)[C@](C)(N=[N+]=[N-])[C@@H]1O)Oc1cccc2ccccc12` (some centres unmarked) [Compound 47], the concentration giving a half-maximal response (EC50) stood at 400 nM. Turning to `CC(C)COC(=O)[C@H](C)NP(=O)(OC[C@H]1O[C@@H](n2ccc(N)nc2=O)[C@](C)(N=[N+]=[N-])[C@@H]1O)Oc1ccccc1` (some centres unmarked) [Compound 48], the EC50 was determined as 3100 nM. `CCOC(=O)[C@H](C)NP(=O)(OC[C@H]1O[C@@H](n2ccc(=O)[nH]c2=O)[C@](C)(N=[N+]=[N-])[C@@H]1O)Oc1ccc(Cl)cc1` (some centres unmarked) [Compound 49]: the EC50 came out at 5300 nM. Still for that read-out and setting: under `COC(=O)[C@H](C)NP(=O)(OC[C@H]1O[C@@H](n2ccc(=O)[nH]c2=O)[C@](C)(N=[N+]=[N-])[C@@H]1O)Oc1ccc(Cl)cc1` (some centres unmarked) [Compound 50] stands 4000 nM; under `CCCCOC(=O)[C@H](C)NP(=O)(OC[C@H]1O[C@@H](n2cnc3c(OC)nc(N)nc32)[C@](C)(N=[N+]=[N-])[C@@H]1O)Oc1cccc2ccccc12` (some centres unmarked) [Compound 52], 1200 nM.

For the molecule `COC(=O)[C@H](C)NP(=O)(OC[C@H]1O[C@@H](n2cnc3c(OC)nc(N)nc32)[C@](C)(N=[N+]=[N-])[C@@H]1O)Oc1ccccc1` (some centres unmarked) [Compound 53], the half-maximal effective concentration (EC50) came to 700 nM. Still for that read-out and setting: under `COc1nc(N)nc2c1ncn2[C@@H]1O[C@H](COP(=O)(N[C@@H](C)C(=O)OCC(C)(C)C)Oc2ccccc2)[C@@H](O)[C@@]1(C)N=[N+]=[N-]` (some centres unmarked) [Compound 55] stands 1100 nM; under `COC(=O)[C@H](C)NP(=O)(OC[C@H]1O[C@@H](n2cnc3c(OC)nc(N)nc32)[C@](C)(N=[N+]=[N-])[C@@H]1O)Oc1cccc2ccccc12` (some centres unmarked) [Compound 57], 400 nM; under `CCOc1nc(N)nc2c1ncn2[C@@H]1O[C@H](COP(=O)(N[C@@H](C)C(=O)OC)Oc2ccccc2Cl)[C@@H](O)[C@@]1(C)N=[N+]=[N-]` (some centres unmarked) [Compound 58], 500 nM. On to `CCOc1nc(N)nc2c1ncn2[C@@H]1O[C@H](COP(=O)(N[C@@H](C)C(=O)OC(C)C)Oc2ccccc2Cl)[C@@H](O)[C@@]1(C)N=[N+]=[N-]` (some centres unmarked) [Compound 59], for which the EC50 stood at 10000 nM. As for `CCOc1nc(N)nc2c1ncn2[C@@H]1O[C@H](COP(=O)(N[C@@H](C)C(=O)OC)Oc2ccc(Cl)cc2)[C@@H](O)[C@@]1(C)N=[N+]=[N-]` (some centres unmarked) [Compound 63], the EC50 stood at 400 nM. On the same count and under the same terms, under `CCOc1nc(N)nc2c1ncn2[C@@H]1O[C@H](COP(=O)(N[C@@H](C)C(=O)OC2CCCCC2)Oc2ccc(F)cc2)[C@@H](O)[C@@]1(C)N=[N+]=[N-]` (some centres unmarked) [Compound 64] stands 400 nM.

The assay is the same for the next values; noted with them: read-out: 1b EC50.
Take `CC(C)COC(=O)[C@H](C)NP(=O)(OC[C@H]1O[C@@H](n2ccc(=O)[nH]c2=O)[C@](C)(N=[N+]=[N-])[C@@H]1O)Oc1ccccc1` (some centres unmarked) [Compound 37]: the EC50 was 3500 nM. Turning to `CC(C)COC(=O)[C@H](C)NP(=O)(OC[C@H]1O[C@@H](n2ccc(=O)[nH]c2=O)[C@](C)(N=[N+]=[N-])[C@@H]1O)Oc1ccccc1` (some centres unmarked) [Compound 38], the EC50 worked out at 300 nM. Same read-out and setting: as for `CCOC(=O)[C@H](C)NP(=O)(OC[C@H]1O[C@@H](n2cnc3c(OC)nc(N)nc32)[C@](C)(N=[N+]=[N-])[C@@H]1O)Oc1ccccc1` (some centres unmarked) [Compound 54], the figure is 300 nM; as for `CCOc1nc(N)nc2c1ncn2[C@@H]1O[C@H](COP(=O)(N[C@@H](C)C(=O)OCC(C)C)Oc2ccccc2)[C@@H](O)[C@@]1(C)N=[N+]=[N-]` (some centres unmarked) [Compound 60], 2000 nM. `CCOc1nc(N)nc2c1ncn2[C@@H]1O[C@H](COP(=O)(N[C@@H](C)C(=O)OCC(C)C)Oc2ccccc2)[C@@H](O)[C@@]1(C)N=[N+]=[N-]` (some centres unmarked) [Compound 61]: the concentration for a half-maximal effect (EC50) was determined as 800 nM. Consider `CCOc1nc(N)nc2c1ncn2[C@@H]1O[C@H](COP(=O)(N[C@@H](C)C(=O)OCC(C)C)Oc2ccccc2)[C@@H](O)[C@@]1(C)N=[N+]=[N-]` (some centres unmarked) [Compound 62], for which the EC50 was found to be 800 nM.
